Experimental data taken from patent publication US8354537B2, “R,R1-atracurium salts” (CHEMAGIS Ltd., priority 2007, dated 2013).

Assay: Stability of the R,R′-atracurium salts in a closed vial at room temperature, monitored by HPLC
Type: physicochemical
Conditions: solid salt; for % content of the 1R-cis,1′R-cis isomer in the sample, After 19 days / % content of the 1R-cis,1′R-cis isomer in the sample, After 34 days / % content of the 1R-cis,1′R-cis isomer in the sample, After 47 days: HPLC; for % content of the 1R-cis,1′R-cis isomer in the sample, Reference sample (t0): t0, HPLC
Description: 1 g of the R,R′-atracurium salt was placed in a closed vial, which was left aside at room temperature. From time to time the vial was opened and a sample was withdrawn and monitored by HPLC. The results are summarized in Table 3 and expressed as % content of the 1R-cis,1′R-cis isomer in the sample as function of the elapsed time, as measured by HPLC.

Molecule	% content of the 1R-cis,1′R-cis isomer in the sample, After 19 days [%]	% content of the 1R-cis,1′R-cis isomer in the sample, After 34 days [%]	% content of the 1R-cis,1′R-cis isomer in the sample, After 47 days [%]	% content of the 1R-cis,1′R-cis isomer in the sample, Reference sample (t0) [%]
COc1ccc(C[C@@H]2c3cc(OC)c(OC)cc3CC[N+]2(C)CCC(=O)OCCCCCOC(=O)CC[N+]2(C)CCc3cc(OC)c(OC)cc3[C@H]2Cc2ccc(OC)c(OC)c2)cc1OC.O=S(=O)([O-])c1ccccc1.O=S(=O)([O-])c1ccccc1 (stereo partly drawn) [besylate, R,R′-atracurium besylate, reference compound]	80.5	15.1	7.9	97.2
R,R′-atracurium perchlorate	92.1	92.7	92.3	98
R,R′-atracurium tetrafluoroborate	88.8	85.3	82.6	98.2
